We go through 7 molecules from US20070004736A1, “Imidazole derivative, process for producing the same, and use” (priority 2002, published 2007).

One may read the IC50 as the point on the concentration scale where inhibition reaches its midpoint. Higher therefore signals weaker potency.

Structures can show the parent of a compound that is named as a salt.

Sequence of human FXa (P00742 235-488 limits assumed): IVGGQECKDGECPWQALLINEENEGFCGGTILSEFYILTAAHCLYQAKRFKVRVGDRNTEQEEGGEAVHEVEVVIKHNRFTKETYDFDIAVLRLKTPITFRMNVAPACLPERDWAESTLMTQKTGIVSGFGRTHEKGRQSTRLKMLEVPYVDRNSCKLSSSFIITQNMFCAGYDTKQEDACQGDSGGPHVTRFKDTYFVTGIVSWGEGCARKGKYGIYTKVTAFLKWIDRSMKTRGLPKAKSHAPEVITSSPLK
Sequence of human FXa (P00742 41-179 partner limits assumed): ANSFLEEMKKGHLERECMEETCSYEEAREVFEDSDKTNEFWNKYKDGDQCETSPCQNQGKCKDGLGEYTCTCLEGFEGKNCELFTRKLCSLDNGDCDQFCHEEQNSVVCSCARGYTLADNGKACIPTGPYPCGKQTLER

The assay deals with human FXa (Homo sapiens, UniProt P00742). Kind of assay: Human activated blood coagulation factor X (FXa) inhibitory activity. The class given is biochemical. The conditions noted are these: concentration at which 50% of FXa activity was inhibited; substrate S-2765, 37° C., absorbance at 405 nm. As for the experimental part:
(1) Human Activated Blood Coagulation Factor X (FXa) Inhibitory Activity
Experimental method: 225 μl of a 0.05 M Tris-HCl buffer (pH 8.3) containing 0.145 M sodium chloride and 2 mM calcium chloride, 5 μl of a sample (a test compound was dissolved in dimethyl sulfoxide) and 10 μl of human FXa (0.3 unit/ml) were added to a 96-well microplate and incubated at 37° C. for about 10 minutes. Then, 10 μl of a substrate (3 mM, S-2765) was added to the plate and incubated at 37° C. for 10 minutes. After stopping the reaction by adding 25 μl of a 50% aqueous acetic acid, a change in absorbance at 405 nm was measured with a spectrophotometer, and the concentration (IC50) at which 50% of FXa activity was inhibited was calculated.
With `Cc1ncc(C2CCN(C(=O)CCS(=O)(=O)c3ccc4cc(Cl)ccc4c3)CC2)n1C` [Example 24, 1-{3-[(6-Chloro-2-naphthyl)sulufonyl]propanoyl}-4-(1,2-dimethyl-1H-imidazol-5-yl)piperidine], the IC50 was found to be 31 nM.
The same measure for `Cc1ncc2n1CCN(C1CCN(C(=O)CCS(=O)(=O)c3ccc4cc(Cl)ccc4c3)CC1)C2=O` [Example 38, 7-(1-{3-[(6-Chloro-2-naphthyl)sulfonyl]propanoyl}-4-piperidinyl)-3-methyl-6,7-dihydroimidazo[1,5-a]pyrazin-8(5H)-one]: 11 nM; for `Cc1ncn2c1C(=O)N(C1CCN(C(=O)CCS(=O)(=O)c3ccc4cc(Cl)ccc4c3)CC1)CC2` [Example 39, 7-(1-{3-[(6-Chloro-2-naphthyl)sulfonyl]propanoyl}-4-piperidinyl)-1-methyl-6,7-dihydoroimidazo[1,5-a]pyrazin-8(5H)-one]: 11 nM; for `CCc1ncc2n1C(=O)N(C1CCN(C(=O)CCS(=O)(=O)c3ccc4cc(Cl)ccc4c3)CC1)C2` [Example 42, 2-(1-{3-[(6-Chloro-2-naphthyl)sulfonyl]propanoyl}-4-piperidinyl)-5-ethyl-1,2-dihydro-3H-imidazo[1,5-c]imidazol-3-one]: 7.1 nM.
The result for `Cc1nc(C)n2c1CN(C1CCN(C(=O)CCS(=O)(=O)c3ccc4cc(Cl)ccc4c3)CC1)C2=O` [Example 72, 2-(1-{3-[(6-Chloro-2-naphthyl)sulfonyl]propanoyl}-4-piperidinyl)-5,7-dimethyl-1,2-dihydro-3H-imidazo[1,5-c]imidazol-3-one] reads 7.2 nM.
The result for `Cc1nccn1CCC1CCN(C(=O)CCS(=O)(=O)c2ccc3cc(Cl)ccc3c2)CC1` [Example 102, 1-{3-[(6-Chloro-2-naphthyl)sulfonyl]propanoyl}-4-[2-(2-methyl-1H-imdazol-1-yl)ethyl]piperidine hydrochloride] reads 43 nM; that for `Cc1nc(C)n(CCC2CCN(C(=O)CCS(=O)(=O)c3ccc4cc(Cl)ccc4c3)CC2)c1C` [Example 109, 1-{3-[(6-Chloro-2-naphthyl)sulfonyl]propanoyl}-4-[2-(2,4,5-trimethyl-1H-imidazol-1-yl)ethyl]piperidine], 45 nM.
